The assay concerns the target T1, Proteasome subunit beta type-5 (Homo sapiens, UniProt P28074).
T1 sequence (P28074 whole entry): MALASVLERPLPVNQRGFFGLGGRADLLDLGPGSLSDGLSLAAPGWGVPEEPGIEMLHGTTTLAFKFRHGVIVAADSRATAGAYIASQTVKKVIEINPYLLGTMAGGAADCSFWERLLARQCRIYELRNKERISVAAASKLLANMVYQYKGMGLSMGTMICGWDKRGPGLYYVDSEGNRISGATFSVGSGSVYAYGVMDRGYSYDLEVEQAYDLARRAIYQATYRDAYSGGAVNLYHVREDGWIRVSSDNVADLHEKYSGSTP
As to the kind of experiment: 20S proteasome chymotrypsin-like inhibition assay.

Data on four molecules can be found in BindingDB's records for doi:10.1111/cbdd.12342 (Zhejiang University, 2014).

pIC50: −log10 of the molar value.

Molecule `CC(C)C[C@H](NC(=O)CC(NC(=O)c1ccc(F)cc1)c1ccccc1)C(=O)N[C@@H](CC(C)C)C(=O)[C@@]1(C)CO1` (some centres undefined) [4-Fluoro-N-{3-{S-4-methyl-1-[S-4-methyl-1-(R-2-methyloxiran-2-yl)-1-oxopentan-2-ylamino]-1-oxopentan-2-ylamino}-3-oxo-1-phenylpropyl} benzamide (21d)] had a pIC50 of 6.01.
The same measure for `COc1ccc(C(=O)NC(CC(=O)N[C@@H](CC(C)C)C(=O)N[C@@H](CC(C)C)C(=O)[C@@]2(C)CO2)c2ccccc2)cc1` (some centres undefined) [4-Methoxy-N-{3-{S-4-methyl-1-[S-4-methyl-1-(R-2-methyloxiran-2-yl)-1-oxopentan-2-ylamino]-1-oxopentan-2-ylamino}-3-oxo-1-phenylpropyl} benzamide (21e)]: 6.00; for `CC(C)C[C@H](NC(=O)CC(NC(=O)c1ccccc1)c1ccccc1)C(=O)N[C@@H](CC(C)C)C(=O)[C@@]1(C)CO1` (some centres undefined) [N-{3-{S-4-Methyl-1-[S-4-methyl-1-(R-2-methyloxiran-2-yl)-1-oxopentan-2-ylamino]-1-oxopentan-2-ylamino}-3-oxo-1-phenylpropyl} benzamide (21c)]: 5.85; for `CC(C)C[C@H](NC(=O)CC(NC(=O)c1cccnc1)c1ccccc1)C(=O)N[C@@H](CC(C)C)C(=O)[C@@]1(C)CO1` (some centres undefined) [N-{3-{S-4-Methyl-1-[S-4-methyl-1-(R-2-methyloxiran-2-yl)-1-oxopentan-2-ylamino]-1-oxopentan-2-ylamino}-3-oxo-1-phenylpropyl} nicotinamide (21b)]: 5.73.
